# Results as given in US20240158446A1, “CYCLIC COMPOUND HAVING SELECTIVE INHIBITORY ACTION ON KRAS OVER HRAS AND NRAS” (CHUGAI SEIYAKU KABUSHIKI KAISHA, priority 2021, published 2024).
# pKd: −log10 of the molar value. Where a SMILES comes first, the peptide text is derived from it. Bridges are numbered along the chain shown (N, C = ends). [ ]: non-standard residue; d: D form. The star is where a group is joined. hPhe(3-Cl-4-CF3) = N[C@@H](CCc1ccc(C(F)(F)F)c(Cl)c1)C(=O)O; NPrPhe(4-CF3) = CCCN[C@@H](Cc1ccc(C(F)(F)F)cc1)C(=O)O; Piperazinyl(4-(3-oxetanyl)) = C1OCC1N1CCN(*)CC1; NMeAbu(4,4,4-F3) = CN[C@@H](CC(F)(F)F)C(=O)O; NMeGly(cPent) = CN[C@H](C(=O)O)C1CCCC1; NMeGly(cBu) = CN[C@H](C(=O)O)C1CCC1; Piperidide(4-Me) = CC1CCN(*)CC1; NMeD = CN[C@@H](CC(=O)O)C(=O)O; NMeL = CN[C@@H](CC(C)C)C(=O)O; Oxazolidin(3-yl) = C1CN(*)CO1; Azetidin(1-yl) = C1CN(*)C1; Morpholide = C1CN(*)CCO1; NMeA = CN[C@@H](C)C(=O)O; Piperidide = C1CCN(*)CC1; Pyrrolidide = C1CCN(*)C1; Ac5c = NC1(C(=O)O)CCCC1; Aze = O=C(O)[C@@H]1CCN1; X24 = CC1(C)CCN(*)C1; Sar = CNCC(=O)O
# What was measured:
# [1] = molecular target: GDP-bound NRAS wild-type protein (Homo sapiens, UniProt P01111); experiment: Binding to NRAS by surface plasmon resonance (SPR), Single Cycle Kinetics; details: SPR, GDP-bound NRAS wild-type protein vs GDP-bound KRAS wild-type protein
# Chain of GDP-bound NRAS wild-type protein (P01111 whole entry): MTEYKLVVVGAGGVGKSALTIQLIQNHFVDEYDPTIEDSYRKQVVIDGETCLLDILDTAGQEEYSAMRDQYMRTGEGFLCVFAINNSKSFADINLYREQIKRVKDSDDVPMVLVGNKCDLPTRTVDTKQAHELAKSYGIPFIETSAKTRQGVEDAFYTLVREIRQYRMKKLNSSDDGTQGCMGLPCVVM
# [2] = molecular target: GDP-bound HRAS wild-type protein (Homo sapiens, UniProt P01112); experiment: Binding to HRAS by surface plasmon resonance (SPR), Single Cycle Kinetics; details: SPR, GDP-bound HRAS wild-type protein vs GDP-bound KRAS wild-type protein
# Chain of GDP-bound HRAS wild-type protein (P01112 whole entry): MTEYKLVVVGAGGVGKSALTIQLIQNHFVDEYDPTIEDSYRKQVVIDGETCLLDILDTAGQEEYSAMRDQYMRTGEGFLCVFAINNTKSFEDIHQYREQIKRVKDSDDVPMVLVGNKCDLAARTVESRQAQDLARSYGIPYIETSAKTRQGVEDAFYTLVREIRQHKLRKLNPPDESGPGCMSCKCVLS
# [3] = molecular target: GDP-bound KRAS wild-type protein (Homo sapiens, UniProt P01116); experiment: Binding to KRAS by surface plasmon resonance (SPR), Single Cycle Kinetics; details: SPR Single Cycle Kinetics, GDP-bound KRAS wild-type protein, 1:1 binding model; read-out: KRAS KD
# Chain of GDP-bound KRAS wild-type protein (P01116 whole entry): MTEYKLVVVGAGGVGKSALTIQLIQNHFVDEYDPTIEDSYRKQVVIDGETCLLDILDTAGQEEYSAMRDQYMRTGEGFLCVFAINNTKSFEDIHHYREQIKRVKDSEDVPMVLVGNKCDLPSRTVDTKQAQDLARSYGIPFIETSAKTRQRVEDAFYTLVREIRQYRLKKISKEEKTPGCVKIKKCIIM
SMILES,NRAS/KRAS (ratio of KD value for NRAS to KD value for KRAS) [1],HRAS/KRAS (ratio of KD value for HRAS to KD value for KRAS) [2],pKd [3]
CCCN1C(=O)CN(C)C(=O)CN(C)C(=O)[C@H]([C@@H](C)CC)NC(=O)[C@H](CC(C)C)N(C)C(=O)C[C@@H](C(=O)N2CCC(C)(C)C2)N(C)C(=O)[C@H](C2CCCC2)N(C)C(=O)C2(CCCC2)NC(=O)[C@@H]2CCCN2C(=O)[C@H](CCc2ccc(C(F)(F)F)c(Cl)c2)NC(=O)CN(C)C(=O)[C@@H]1Cc1ccc(C(F)(F)F)cc1 [PP0177] ([NMeL]I[Sar][Sar][NPrPhe(4-CF3)][Sar][hPhe(3-Cl-4-CF3)]P[Ac5c][NMeGly(cPent)][NMeD]-X24; lactam N-11),B (a compound having 3 or more and less than 10 is denoted as B),C (A compound having a KD ratio of 0.1 or more and less than 3 is denoted as C),9.26
CCCN1C(=O)[C@@H]2CCN2C(=O)[C@H](C)N(C)C(=O)[C@H]([C@@H](C)CC)NC(=O)[C@H](CC(C)C)N(C)C(=O)C[C@@H](C(=O)N(C)C)N(C)C(=O)[C@H](C2CCCC2)N(C)C(=O)C2(CCCC2)NC(=O)[C@@H]2CCCN2C(=O)[C@H](CCc2ccc(C(F)(F)F)c(Cl)c2)NC(=O)CN(C)C(=O)[C@@H]1Cc1ccc(C(F)(F)F)cc1 [PP0178] ([NMeL]I[NMeA][Aze][NPrPhe(4-CF3)][Sar][hPhe(3-Cl-4-CF3)]P[Ac5c][NMeGly(cPent)][NMeD]-NMe2; lactam N-11),C (A compound having a KD ratio of 0.1 or more and less than 3 is denoted as C),B (a compound having 3 or more and less than 10 is denoted as B),10.14
CCCN1C(=O)[C@@H]2CCN2C(=O)[C@H](C)N(C)C(=O)[C@H]([C@@H](C)CC)NC(=O)[C@H](CC(C)C)N(C)C(=O)C[C@@H](C(=O)N2CCCC2)N(C)C(=O)[C@H](C2CCCC2)N(C)C(=O)C2(CCCC2)NC(=O)[C@@H]2CCCN2C(=O)[C@H](CCc2ccc(C(F)(F)F)c(Cl)c2)NC(=O)CN(C)C(=O)[C@@H]1Cc1ccc(C(F)(F)F)cc1 [PP0179] ([NMeL]I[NMeA][Aze][NPrPhe(4-CF3)][Sar][hPhe(3-Cl-4-CF3)]P[Ac5c][NMeGly(cPent)][NMeD]-Pyrrolidide; lactam N-11),C (A compound having a KD ratio of 0.1 or more and less than 3 is denoted as C),B (a compound having 3 or more and less than 10 is denoted as B),9.96
CCCN1C(=O)[C@@H]2CCN2C(=O)[C@H](C)N(C)C(=O)[C@H]([C@@H](C)CC)NC(=O)[C@H](CC(C)C)N(C)C(=O)C[C@@H](C(=O)N2CCCCC2)N(C)C(=O)[C@H](C2CCCC2)N(C)C(=O)C2(CCCC2)NC(=O)[C@@H]2CCCN2C(=O)[C@H](CCc2ccc(C(F)(F)F)c(Cl)c2)NC(=O)CN(C)C(=O)[C@@H]1Cc1ccc(C(F)(F)F)cc1 [PP0180] ([NMeL]I[NMeA][Aze][NPrPhe(4-CF3)][Sar][hPhe(3-Cl-4-CF3)]P[Ac5c][NMeGly(cPent)][NMeD]-Piperidide; lactam N-11),C (A compound having a KD ratio of 0.1 or more and less than 3 is denoted as C),C (A compound having a KD ratio of 0.1 or more and less than 3 is denoted as C),9.14
CCCN1C(=O)[C@@H]2CCN2C(=O)[C@H](C)N(C)C(=O)[C@H]([C@@H](C)CC)NC(=O)[C@H](CC(C)C)N(C)C(=O)C[C@@H](C(=O)N2CCC2)N(C)C(=O)[C@H](C2CCCC2)N(C)C(=O)C2(CCCC2)NC(=O)[C@@H]2CCCN2C(=O)[C@H](CCc2ccc(C(F)(F)F)c(Cl)c2)NC(=O)CN(C)C(=O)[C@@H]1Cc1ccc(C(F)(F)F)cc1 [PP0181] ([NMeL]I[NMeA][Aze][NPrPhe(4-CF3)][Sar][hPhe(3-Cl-4-CF3)]P[Ac5c][NMeGly(cPent)][NMeD]-{Azetidin(1-yl)}; lactam N-11),C (A compound having a KD ratio of 0.1 or more and less than 3 is denoted as C),B (a compound having 3 or more and less than 10 is denoted as B),10.09
CCCN1C(=O)[C@@H]2CCN2C(=O)[C@H](C)N(C)C(=O)[C@H]([C@@H](C)CC)NC(=O)[C@H](CC(C)C)N(C)C(=O)C[C@@H](C(=O)N2CCOC2)N(C)C(=O)[C@H](C2CCCC2)N(C)C(=O)C2(CCCC2)NC(=O)[C@@H]2CCCN2C(=O)[C@H](CCc2ccc(C(F)(F)F)c(Cl)c2)NC(=O)CN(C)C(=O)[C@@H]1Cc1ccc(C(F)(F)F)cc1 [PP0183] ([NMeL]I[NMeA][Aze][NPrPhe(4-CF3)][Sar][hPhe(3-Cl-4-CF3)]P[Ac5c][NMeGly(cPent)][NMeD]-{Oxazolidin(3-yl)}; lactam N-11),C (A compound having a KD ratio of 0.1 or more and less than 3 is denoted as C),B (a compound having 3 or more and less than 10 is denoted as B),9.77
CCCN1C(=O)[C@@H]2CCN2C(=O)[C@H](C)N(C)C(=O)[C@H]([C@@H](C)CC)NC(=O)[C@H](CC(C)C)N(C)C(=O)C[C@@H](C(=O)N2CCN(C3COC3)CC2)N(C)C(=O)[C@H](C2CCCC2)N(C)C(=O)C2(CCCC2)NC(=O)[C@@H]2CCCN2C(=O)[C@H](CCc2ccc(C(F)(F)F)c(Cl)c2)NC(=O)CN(C)C(=O)[C@@H]1Cc1ccc(C(F)(F)F)cc1 [PP0184] ([NMeL]I[NMeA][Aze][NPrPhe(4-CF3)][Sar][hPhe(3-Cl-4-CF3)]P[Ac5c][NMeGly(cPent)][NMeD]-{Piperazinyl(4-(3-oxetanyl))}; lactam N-11),C (A compound having a KD ratio of 0.1 or more and less than 3 is denoted as C),B (a compound having 3 or more and less than 10 is denoted as B),9.49
CCCN1C(=O)[C@@H]2CCN2C(=O)[C@H](C)N(C)C(=O)[C@H]([C@@H](C)CC)NC(=O)[C@H](CC(C)C)N(C)C(=O)C[C@@H](C(=O)N2CCC(C)CC2)N(C)C(=O)[C@H](C2CCCC2)N(C)C(=O)C2(CCCC2)NC(=O)[C@@H]2CCCN2C(=O)[C@H](CCc2ccc(C(F)(F)F)c(Cl)c2)NC(=O)CN(C)C(=O)[C@@H]1Cc1ccc(C(F)(F)F)cc1 [PP0185] ([NMeL]I[NMeA][Aze][NPrPhe(4-CF3)][Sar][hPhe(3-Cl-4-CF3)]P[Ac5c][NMeGly(cPent)][NMeD]-{Piperidide(4-Me)}; lactam N-11),C (A compound having a KD ratio of 0.1 or more and less than 3 is denoted as C),B (a compound having 3 or more and less than 10 is denoted as B),8.96
CCCN1C(=O)[C@@H]2CCN2C(=O)[C@H](C)N(C)C(=O)[C@H]([C@@H](C)CC)NC(=O)[C@H](CC(C)C)N(C)C(=O)C[C@@H](C(=O)N2CCC(C)(C)C2)N(C)C(=O)[C@H](C2CCCC2)N(C)C(=O)C2(CCCC2)NC(=O)[C@@H]2CCCN2C(=O)[C@H](CCc2ccc(C(F)(F)F)c(Cl)c2)NC(=O)CN(C)C(=O)[C@@H]1Cc1ccc(C(F)(F)F)cc1 [PP0186] ([NMeL]I[NMeA][Aze][NPrPhe(4-CF3)][Sar][hPhe(3-Cl-4-CF3)]P[Ac5c][NMeGly(cPent)][NMeD]-X24; lactam N-11),C (A compound having a KD ratio of 0.1 or more and less than 3 is denoted as C),B (a compound having 3 or more and less than 10 is denoted as B),8.77
"CCCN1C(=O)CN(C)C(=O)CN(C)C(=O)[C@H]([C@@H](C)CC)NC(=O)[C@H](CC(F)(F)F)N(C)C(=O)C[C@@H](C(=O)N2CCOCC2)N(C)C(=O)[C@H](C2CCCC2)N(C)C(=O)C2(CCCC2)NC(=O)[C@@H]2CCCN2C(=O)[C@H](CCc2ccc(C(F)(F)F)c(Cl)c2)NC(=O)CN(C)C(=O)[C@@H]1Cc1ccc(C(F)(F)F)cc1 [PP0187] ([NMeAbu(4,4,4-F3)]I[Sar][Sar][NPrPhe(4-CF3)][Sar][hPhe(3-Cl-4-CF3)]P[Ac5c][NMeGly(cPent)][NMeD]-Morpholide; lactam N-11)",B (a compound having 3 or more and less than 10 is denoted as B),C (A compound having a KD ratio of 0.1 or more and less than 3 is denoted as C),9.72
CCCN1C(=O)CN(C)C(=O)CN(C)C(=O)[C@H]([C@@H](C)CC)NC(=O)[C@H](C2CCC2)N(C)C(=O)C[C@@H](C(=O)N2CCOCC2)N(C)C(=O)[C@H](C2CCCC2)N(C)C(=O)C2(CCCC2)NC(=O)[C@@H]2CCCN2C(=O)[C@H](CCc2ccc(C(F)(F)F)c(Cl)c2)NC(=O)CN(C)C(=O)[C@@H]1Cc1ccc(C(F)(F)F)cc1 [PP0188] ([NMeGly(cBu)]I[Sar][Sar][NPrPhe(4-CF3)][Sar][hPhe(3-Cl-4-CF3)]P[Ac5c][NMeGly(cPent)][NMeD]-Morpholide; lactam N-11),B (a compound having 3 or more and less than 10 is denoted as B),C (A compound having a KD ratio of 0.1 or more and less than 3 is denoted as C),9.60
